One block for each molecule: values may come before it.
What was measured:
[1] = test system: Brain; test: Drug uptake in healthy Homo sapiens (human) brain by NMR analysis; format: ADME, tissue-based
[2] = Bioavailability in Homo sapiens (human) at 2.5 mg, intramuscular after 15 min; format: ADME, organism-based; conditions: in vivo, im
[3] = Bioavailability in Homo sapiens (human) at 2.5 mg, intranasal after 15 min; format: ADME, organism-based; conditions: in vivo, inhaled or intranasal
[4] = Plasma protein binding in Homo sapiens (human); format: ADME, cell-free; conditions: read-out: PPB (converted)
[5] = Drug uptake in depression pateint brain at 20 mg/day after 3 days by NMR analysis; format: ADME; conditions: human, read-out: Drug uptake
[6] = target: Albumin (Homo sapiens, UniProt P02768); test: Binding affinity to Homo sapiens (human) serum albumin at 1.5 to 800 ug/ml by NMR analysis; format: ADME; conditions: isolated protein
Albumin, sequence (P02768 whole entry): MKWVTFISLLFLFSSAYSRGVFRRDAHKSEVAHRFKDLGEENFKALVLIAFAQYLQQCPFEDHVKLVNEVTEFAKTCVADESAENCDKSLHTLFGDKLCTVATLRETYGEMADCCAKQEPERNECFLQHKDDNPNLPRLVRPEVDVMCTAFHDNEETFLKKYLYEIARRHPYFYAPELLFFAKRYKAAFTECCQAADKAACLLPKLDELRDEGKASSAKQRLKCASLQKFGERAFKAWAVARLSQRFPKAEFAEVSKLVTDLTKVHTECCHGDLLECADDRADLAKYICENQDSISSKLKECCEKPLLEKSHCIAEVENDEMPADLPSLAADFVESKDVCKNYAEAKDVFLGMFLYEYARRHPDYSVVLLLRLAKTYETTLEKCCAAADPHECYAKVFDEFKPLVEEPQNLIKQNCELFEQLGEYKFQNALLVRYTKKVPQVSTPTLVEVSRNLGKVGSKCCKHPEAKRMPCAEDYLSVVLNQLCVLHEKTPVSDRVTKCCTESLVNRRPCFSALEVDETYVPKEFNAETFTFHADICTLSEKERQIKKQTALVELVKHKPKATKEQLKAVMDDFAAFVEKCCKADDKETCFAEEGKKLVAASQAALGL

Structure (SMILES): OCCN1CCN(CCCN2c3ccccc3Sc3ccc(C(F)(F)F)cc32)CC1 [FLUPHENAZINE]
- Drug uptake [1]: 4 µg/mL

- bioavailability [2]: 48.6%
- bioavailability [3]: 63.8%
- fraction unbound [4]: 0.1
Structure (SMILES): O=C(CCCN1CCC(O)(c2ccc(Cl)cc2)CC1)c1ccc(F)cc1 [HALOPERIDOL]

- concentration at 72 h [5]: 6000 ng/mL
Structure (SMILES): Fc1ccc([C@@H]2CCNC[C@H]2COc2ccc3c(c2)OCO3)cc1 [PAROXETINE]

- Drug uptake [1]: 4 µg/mL
Structure (SMILES): CN1CCN(CCCN2c3ccccc3Sc3ccc(C(F)(F)F)cc32)CC1 [TRIFLUOPERAZINE]

- Activity [6]: Active
Structure (SMILES): O=C(CCCN1CCC(O)(c2ccc(Cl)cc2)CC1)c1ccc([19F])cc1 [[19F]-HALOPERIDOL]
